A word on the IC50: it is the concentration that inhibits the measured activity by half.

Here are results for one compound from patent US20030054524A1, “Method of increasing the fatty acid content in plant seeds” (priority 1999, published 2003).

The test system of one assay is enzymes of the KASI type. The conditions noted are these: in the presence of 5 μM cerulenin; cited from earlier work.
Another assay addresses T1, clKASIV (Cuphea lanceolata, UniProt Q949J2).
T1 sequence (Q949J2 106-538): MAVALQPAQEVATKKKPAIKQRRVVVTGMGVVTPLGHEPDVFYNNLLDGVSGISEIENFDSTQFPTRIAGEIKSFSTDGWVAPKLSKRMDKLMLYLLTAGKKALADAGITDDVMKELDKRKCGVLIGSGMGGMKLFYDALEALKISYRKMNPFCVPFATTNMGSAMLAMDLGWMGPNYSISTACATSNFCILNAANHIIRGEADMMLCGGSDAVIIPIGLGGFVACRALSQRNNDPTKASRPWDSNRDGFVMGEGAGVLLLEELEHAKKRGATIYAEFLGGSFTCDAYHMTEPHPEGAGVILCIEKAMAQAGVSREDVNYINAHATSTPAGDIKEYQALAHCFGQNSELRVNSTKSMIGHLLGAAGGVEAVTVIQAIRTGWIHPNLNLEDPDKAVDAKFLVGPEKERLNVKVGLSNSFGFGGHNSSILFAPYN
Kind of assay: Enzyme assay: sensitivity of recombinant clKASIV to cerulenin. In kind it is biochemical. Particulars: condensation assay with [2-14C]-malonyl-ACP. The protocol: The substrate specificities of the recombinant KASII and KASIV enzymes was investigated by incorporating radioactivity of [2-1^4C]-malonyl-ACP into the condensation products. The batch ([…]) contained 100 mM sodium phosphate, pH 7.6, 10 µM acyl-ACP with a specific chain length, 7.5 μM [2-^14C]-malonyl-ACP (0.74 MBq/mmol), 2 mM NADPH, 2 mM DTT, 0.6 Fkat of affinity-purified recombinant GST-β-ketoacyl-ACP-reductase fusion protein of C. lanceolata (Klein et al. (1992) Mol. Gen. Genet. 233:122-128) and 2 μg of the recombinant KASII/IV preparation. The β-hydroxyacyl-ACPs that were synthesized were precipitated, washed and dissolved as described by Winter et al. (1997) Biochem. J 321:313-318 and then separated by a 2.5 M urea-PAGE. After transfer to an Immobilon P membrane by electroblotting at 0.8 mA/cm for one hour, the reaction products were visualized by autoradiography after five-day exposure on an x-ray film (Hyperfilm MP, Amersham, Braunschweig, Germany).
In the assays, saturated acyl-ACP (C4 through C16) was added to the reaction mixture together with [2- ^4C]-malonyl-ACP and was incubated for ten minutes. Incorporation of the radioactivity from [2- ^4C]-malonyl-ACP into the O-ketoacyl-ACP product, which was reduced to β-hydroxyacyl-ACP for the analysis, was determined. […]

Regarding `C/C=C/C/C=C/CCC(=O)[C@H]1O[C@H]1C(N)=O` [cerulenin, Cerulenin], the “inactivation of enzymes of the KASI type by cerulenin” value in the assay with enzymes of the KASI type was “completely inactivated”. The IC50 at clKASIV turned out to be 20 µM.
